Measured values published in patent publication US9956293B2, “Targeted therapeutics” (Madrigal Pharmaceuticals, Inc., priority 2014, dated 2018).

The compounds below were run on HER2 (assay: HER2 degradation assay with BT-474 cell line (Example 12, FACS)). Conditions: Homo sapiens, BT-474; SDC-TRAPs of the 41st table.
Format: cell-based
Description: HER2 Degradation Assay with BT-474 Cell Line
HER2 has emerged as a key target for anticancer drugs due to its intrinsic involvement in the phosphatidylinositol-3-kinase-Akt/protein kinase B (PI3K-Akt) and the mitogen-activated protein kinase (MAPK) pathways, both of which suppress apoptosis and promote tumor cell survival, gene transcription, angiogenesis, cellular proliferation, migration, mitosis, and differentiation. The degradation of HER2 is a measure of efficacy of anticancer therapeutics that target Hsp90. Accordingly, the SDC-TRAP molecules of the invention that comprise a binding moiety that binds Hsp90 were tested in the following HER2 degradation assay.
BT-474 cells (human breast cancer cell line ATCC HTB-20) were obtained from ATCC and seeded into 12-well tissue culture plates at 0.2×10^6/1.8 mL/well. […] Each test compound was titrated in 4-fold dilutions from 5 μM to 78 nM with DMSO and 200 μL of the titration was added to each well of the cell plate. The DMSO final concentration was 0.2%. Cells were incubated overnight at 37° C. in 5% CO2.
Media was decanted from the plate, cells were washed 1× in PBS. 400 μL trypsin (EDTA) per well was added, and the cells were incubated for 2 to 3 minutes. Cells were collected into FACS tubes containing 1 ml culture medium to neutralize the trypsin and were centrifuged for 5 minutes at 1200 rpm. Supernatant was decanted and the cells were resuspended in 5 μL FITC (anti HER2/nu)/200 μL staining buffer (1×PBS+1% FBS+0.05% Sodium Azide)/tube. Controls were […] IgG isotype control and staining buffer only. Tubes were incubated for 30 minutes in the dark at room temperature. 1 mL staining buffer was added to each tube and the tubes were centrifuged for 6 minutes at 1200 rpm. The supernatant was decanted and 300 μL staining buffer was added to each tube, which was store at 4° C. for FACS (cytometer) analysis. The cytometer readout was normalized and the potency of each compound is evaluated with IC50 calculated with XLfit™ software.

SMILES | IC50 [nM]
CC(C)c1cc(-c2nnc(O)n2-c2ccc(CN3CCN(C(=O)c4ccc(CCc5c[nH]c6nc(N)[nH]c(=O)c56)cc4)CC3)cc2)c(O)cc1O [SDC-TRAP-0068, 2-amino-5-(4-(4-(4-(3-(2,4-dihydroxy-5-isopropylphenyl)-5-hydroxy-4H-1,2,4-triazol-4-yl)benzyl)piperazine-1-carbonyl)phenethyl)-3H-pyrrolo[2,3-d]pyrimidin-4(7H)-one] | 262
CC(C)c1cc(-c2nnc(O)n2-c2ccc(CN3CCN(C(=O)c4ccc(CCc5c[nH]c6nc(N)[nH]c(=O)c56)cc4)CC3)c(F)c2)c(O)cc1O [SDC-TRAP-0078, 2-amino-5-(4-(4-(4-(3-(2,4-dihydroxy-5-isopropylphenyl)-5-hydroxy-4H-1,2,4-triazol-4-yl)-2-fluorobenzyl)piperazine-1-carbonyl)phenethyl)-3H-pyrrolo[2,3-d]pyrimidin-4(7H)-one] | 1000
CC(C)c1cc(-c2nnc(O)n2-c2ccc(N3CCN(C(=O)c4ccc(CCc5c[nH]c6nc(N)[nH]c(=O)c56)cc4)CC3)cc2)c(O)cc1O [SDC-TRAP-0082, 2-amino-5-(4-(4-(4-(3-(2,4-dihydroxy-5-isopropylphenyl)-5-hydroxy-4H-1,2,4-triazol-4-yl)phenyl)piperazine-1-carbonyl)phenethyl)-3H-pyrrolo[2,3-d]pyrimidin-4(7H)-one] | 1040
CC(C)c1cc(-c2nnc(O)n2-c2ccc3c(c2)CN(C(=O)c2ccc(CCc4c[nH]c5nc(N)[nH]c(=O)c45)cc2)C3)c(O)cc1O [SDC-TRAP-0093, 2-amino-5-(4-(5-(3-(2,4-dihydroxy-5-isopropylphenyl)-5-hydroxy-4H-1,2,4-triazol-4-yl)isoindoline-2-carbonyl)phenethyl)-3H-pyrrolo[2,3-d]pyrimidin-4(7H)-one] | > 5000
CC(C)c1cc(-c2nnc(O)n2-c2ccc3c(c2)nc(C2CCN(C(=O)c4ccc(CCc5c[nH]c6nc(N)[nH]c(=O)c56)cc4)CC2)n3C)c(O)cc1O [SDC-TRAP-0102, 2-amino-5-(4-(4-(5-(3-(2,4-dihydroxy-5-isopropylphenyl)-5-hydroxy-4H-1,2,4-triazol-4-yl)-1-methyl-1H-benzo[d]imidazol-2-yl)piperidine-1-carbonyl)phenethyl)-3H-pyrrolo[2,3-d]pyrimidin-4(7H)-one] | > 5000
CC(C)c1cc(-c2nnc(O)n2-c2ccc(CC3CCN(CC4CCN(C(=O)c5ccc(CCc6c[nH]c7nc(N)[nH]c(=O)c67)cc5)CC4)CC3)cc2)c(O)cc1O [SDC-TRAP-0103, 2-amino-5-(4-(4-((4-(4-(3-(2,4-dihydroxy-5-isopropylphenyl)-5-hydroxy-4H-1,2,4-triazol-4-yl)benzyl)piperidin-1-yl)methyl)piperidine-1-carbonyl)phenethyl)-3H-pyrrolo[2,3-d]pyrimidin-4(7H)-one] | 245

Same assay, conditions: Homo sapiens, BT-474; SDC-TRAPs of the 43rd table

SMILES | IC50 [nM]
CCc1c2c(nc3ccc(O)cc13)-c1cc3c(c(=O)n1C2)COC(=O)C3(CC)OC(=O)N(C)CCCCN1CCN(Cc2ccc(-n3c(O)nnc3-c3cc(C(C)C)c(O)cc3O)cc2)CC1 (stereo not shown) [SDC-TRAP-0055, 4,11-diethyl-9-hydroxy-3,14-dioxo-3,4,12,14-tetrahydro-1H-pyrano[3′,4′:6,7]indolizino[1,2-b]quinolin-4-yl (4-(4-(4-(3-(2,4-dihydroxy-5-isopropylphenyl)-5-hydroxy-4H-1,2,4-triazol-4-yl)benzyl)piperazin-1-yl)butyl)(methyl)carbamate] | 402
CCc1c2c(nc3ccc(OCCN4CCN(c5ccc(-n6c(O)nnc6-c6cc(C(C)C)c(O)cc6O)cc5)CC4)cc13)-c1cc3c(c(=O)n1C2)COC(=O)C3(O)CC (stereo not shown) [SDC-TRAP-0057, 9-(2-(4-(4-(3-(2,4-dihydroxy-5-isopropylphenyl)-5-hydroxy-4H-1,2,4-triazol-4-yl)phenyl)piperazin-1-yl)ethoxy)-4,11-diethyl-4-hydroxy-1H-pyrano[3′,4′:6,7]indolizino[1,2-b]quinoline-3,14(4H,12H)-dione] | 449
CCc1c2c(nc3ccc(OCCn4ccc5cc(-n6c(O)nnc6-c6cc(C(C)C)c(O)cc6O)ccc54)cc13)-c1cc3c(c(=O)n1C2)COC(=O)C3(O)CC (stereo not shown) [SDC-TRAP-0058, 9-(2-(5-(3-(2,4-dihydroxy-5-isopropylphenyl)-5-hydroxy-4H-1,2,4-triazol-4-yl)-1H-indol-1-yl)ethoxy)-4,11-diethyl-4-hydroxy-1H-pyrano[3′,4′:6,7]indolizino[1,2-b]quinoline-3,14(4H,12H)-dione] | 2930
CCc1c2c(nc3ccc(OCC(=O)N4CCN(Cc5ccc(-n6c(O)nnc6-c6cc(C(C)C)c(O)cc6O)cc5)CC4)cc13)-c1cc3c(c(=O)n1C2)COC(=O)C3(O)CC (stereo not shown) [SDC-TRAP-0077, 9-(2-(4-(4-(3-(2,4-dihydroxy-5-isopropylphenyl)-5-hydroxy-4H-1,2,4-triazol-4-yl)benzyl)piperazin-1-yl)-2-oxoethoxy)-4,11-diethyl-4-hydroxy-1H-pyrano[3′,4′:6, 7]indolizino[1,2-b]quinoline-3,14(4H,12H)-dione] | 2790

Same assay, conditions: Homo sapiens, BT-474; SDC-TRAPs of the 52nd table

SMILES | IC50 [nM]
COc1ccc(-c2cnoc2-c2cc(OC)c(OC)c(OC)c2)cc1OC(=O)N1CCN(c2ccc(-n3c(O)nnc3-c3cc(C(C)C)c(O)cc3O)cc2)CC1 [SDC-TRAP-0099, 2-methoxy-5-(5-(3,4,5-trimethoxyphenyl)isoxazol-4-yl)phenyl-4-(4-(3-(2,4-dihydroxy-5-isopropylphenyl)-5-hydroxy-4H-1,2,4-triazol-4-yl)phenyl)piperazine-1-carboxylate] | 677

Same assay, conditions: Homo sapiens; BT-474 cells

SMILES | IC50 [nM]
CC(C)c1cc(-c2nnc(O)n2-c2ccc3c(ccn3CCNC(=O)Cn3cc(F)c(=O)[nH]c3=O)c2)c(O)cc1O [SDC-TRAP-0013, N-(2-(5-(3-(2,4-dihydroxy-5-isopropylphenyl)-5-hydroxy-4H-1,2,4-triazol-4-yl)-1H-indol-1-yl)ethyl)-2-(5-fluoro-2,4-dioxo-3,4-dihydropyrimidin-1(2H)-yl) acetamide] | > 5000
CC(C)c1cc(-c2nnc(O)n2-c2ccc3c(ccn3CCOCCNC(=O)CCn3cc(F)c(=O)[nH]c3=O)c2)c(O)cc1O [SDC-TRAP-0048, N-(2-(2-(5-(3-(2,4-dihydroxy-5-isopropylphenyl)-5-hydroxy-4H-1,2,4-triazol-4-yl)-1H-indol-1-yl)ethoxy)ethyl)-3-(5-fluoro-2,4-dioxo-3,4-dihydropyrimidin-1(2H)-yl)propanamide] | > 5000
CC(C)c1cc(-c2nnc(O)n2-c2ccc(CN3CCN(C(=O)CCn4cc(F)c(=O)[nH]c4=O)CC3)cc2)c(O)cc1O [SDC-TRAP-0049, 1-(3-(4-(4-(3-(2,4-dihydroxy-5-isopropylphenyl)-5-hydroxy-4H-1,2,4-triazol-4-yl)benzyl)piperazin-1-yl)-3-oxopropyl)-5-fluoropyrimidine-2,4(1H,3H)-dione] | > 5000
CC(C)c1cc(-c2nnc(O)n2-c2ccc3c(ccn3CCOCCN(C)C(=O)CCn3cc(F)c(=O)[nH]c3=O)c2)c(O)cc1O [SDC-TRAP-0050, N-(2-(2-(5-(3-(2,4-dihydroxy-5-isopropylphenyl)-5-hydroxy-4H-1,2,4-triazol-4-yl)-1H-indol-1-yl)ethoxy)ethyl)-3-(5-fluoro-2,4-dioxo-3,4-dihydropyrimidin-1(2H)-yl)-N-methylpropanamide] | > 5000
CC(C)c1cc(-c2nnc(O)n2-c2ccc3c(ccn3CCN(C)C(=O)CCn3cc(F)c(=O)[nH]c3=O)c2)c(O)cc1O [SDC-TRAP-0051, N-(2-(5-(3-(2,4-dihydroxy-5-isopropylphenyl)-5-hydroxy-4H-1,2,4-triazol-4-yl)-1H-indol-1-yl)ethyl)-3-(5-fluoro-2,4-dioxo-3,4-dihydropyrimidin-1(2H)-yl)-N-methylpropanamide] | > 5000
